# Measurements published in patent US5620958A, “Bradykinin antagonists” (Coretech, Inc., priority 1994, dated 1997).
# Numbered stars: 1 amine (or outer) side, 2 acyl side, 3 side chain; on linkers, the order of the positions; unused ones are H or OH. Bridge positions count the residues as written; N and C are the ends. Square brackets hold non-standard residues; d marks the D form. Peptide text beside a SMILES is read from it. I, II: the chains in the order shown. BMH = O=C1CC([*:1])C(=O)N1CCCCCCN1C(=O)CC([*:2])C1=O; Oic = O=C(O)[C@@H]1C[C@@H]2CCCC[C@@H]2N1; Hyp = O=C(O)[C@@H]1C[C@@H](O)CN1; dTic = O=C(O)[C@H]1Cc2ccccc2CN1
# Tests used:
# BK2 receptor [1] = molecular target: T1, BK2 receptor (Cavia porcellus, UniProt O70526); experiment: guinea-pig ileum (GPI) in vitro, antagonism of BK; format: cell-based; details: Table B; read-out: pA2 GUINEA PIG ILEUM (converted)
# T1 construct: tested for activity on guinea pig ileum in vitro on the standard tissue bath/strain gauge system; from tissue; host or cells: guinea pig ileum
# T1 sequence (O70526 1-372): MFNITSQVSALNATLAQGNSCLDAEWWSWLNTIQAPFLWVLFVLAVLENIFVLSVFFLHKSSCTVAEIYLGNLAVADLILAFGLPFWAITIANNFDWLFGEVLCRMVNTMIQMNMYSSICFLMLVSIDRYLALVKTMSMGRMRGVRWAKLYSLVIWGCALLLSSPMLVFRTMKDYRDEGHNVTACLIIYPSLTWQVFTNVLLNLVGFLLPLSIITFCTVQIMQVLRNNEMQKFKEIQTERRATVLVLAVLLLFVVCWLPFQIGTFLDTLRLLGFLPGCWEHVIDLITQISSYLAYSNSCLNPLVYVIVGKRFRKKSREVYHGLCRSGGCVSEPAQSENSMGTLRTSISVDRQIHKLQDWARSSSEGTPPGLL
# Method: Thus, in vitro studies were performed on standard assay systems, namely, guinea-pig ileum (GPI), rat uterus (RU) and rabbit jugular vein (RJV). […] The potency of each compound was assessed as a pA2 value according to the method of Arunlakshana & Schild, Br. J. Pharmacol. Chemother., 1.4:48-58 (1959). The pA2 can be defined as the negative logarithm of the molar concentration of the antagonist in the presence of which the potency of the agonist is reduced two-fold, i.e., twice the amount of agonist is required to produce a given response in the presence of, than in the absence of, the antagonist. A high potency of antagonism is indicated by a high pA2 value, i.e., a low concentration of antagonist is effective.
# The percentage recovery (% Rec) was also determined for compounds with respect to each assay.
# The various compounds identified in Table B below were prepared following the procedure of Example 1 with the Cys moiety introduced into the parent CP-0088 at the position indicated followed by reaction between the sulfhydryl group of the Cys residue and BMH to provide dimers as indicated. The Cys-modified monomers and the resultant dimers were tested for activity on guinea pig ileum in vitro on the standard tissue bath/strain gauge system as before.
# BK2 receptor [2] = molecular target: T2, BK2 receptor (Rattus norvegicus, UniProt P25023); experiment: cell-based
# T2 sequence (P25023 1-396): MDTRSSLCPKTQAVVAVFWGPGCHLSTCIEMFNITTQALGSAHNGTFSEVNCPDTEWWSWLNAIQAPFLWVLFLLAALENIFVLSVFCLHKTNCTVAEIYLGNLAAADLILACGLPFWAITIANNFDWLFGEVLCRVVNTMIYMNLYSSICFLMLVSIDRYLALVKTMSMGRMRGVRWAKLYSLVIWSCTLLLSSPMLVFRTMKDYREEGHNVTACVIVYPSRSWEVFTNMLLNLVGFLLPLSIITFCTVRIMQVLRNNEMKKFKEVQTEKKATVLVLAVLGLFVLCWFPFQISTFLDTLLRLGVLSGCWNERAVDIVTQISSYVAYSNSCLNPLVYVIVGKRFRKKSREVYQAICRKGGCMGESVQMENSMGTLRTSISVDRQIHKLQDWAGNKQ
# BK2 receptor [3] = molecular target: T2, BK2 receptor
# BK1 receptor [4] = molecular target: T3, BK1 receptor (Oryctolagus cuniculus, UniProt P48748); experiment: rabbit aorta in vitro, reversal of des-Arg^9 -BK contraction; format: cell-based; details: negative log of molar concentration
# T3 construct: when administered to an intact animal; from tissue; host or cells: whole rabbit (systemic arterial blood pressure), LPS-pretreated
# T3 sequence (P48748 1-352): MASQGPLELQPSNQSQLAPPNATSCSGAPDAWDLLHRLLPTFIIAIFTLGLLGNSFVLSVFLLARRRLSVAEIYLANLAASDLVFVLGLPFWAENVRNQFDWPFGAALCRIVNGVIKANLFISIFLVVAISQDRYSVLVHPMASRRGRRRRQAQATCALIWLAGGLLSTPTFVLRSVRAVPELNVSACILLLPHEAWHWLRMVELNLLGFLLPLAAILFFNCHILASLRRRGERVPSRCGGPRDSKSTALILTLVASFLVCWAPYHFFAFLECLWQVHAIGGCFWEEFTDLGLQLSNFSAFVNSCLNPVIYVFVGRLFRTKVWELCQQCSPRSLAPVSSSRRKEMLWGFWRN
# BK2 receptor [5] = molecular target: T4, BK2 receptor (Oryctolagus cuniculus, UniProt Q28642); experiment: blood pressure response to BK2 agonist in LPS-pretreated rabbits; format: in vivo, rabbit; parameters: key to OBSERVED ANTAGONIST ACTIVITY BK2: +: indicates complete blockade of the blood pressure response to the appropriate agonist; +/-: indicates partial blockade; -: indicates no observable effect at the dose indicated; details: for OBSERVED ANTAGONIST ACTIVITY BK2: rabbits given LPS (10 μg) 20 hours before
# T4 construct: when administered to an intact animal; from tissue; host or cells: whole rabbit (systemic arterial blood pressure), LPS-pretreated
# T4 sequence (Q28642 1-367): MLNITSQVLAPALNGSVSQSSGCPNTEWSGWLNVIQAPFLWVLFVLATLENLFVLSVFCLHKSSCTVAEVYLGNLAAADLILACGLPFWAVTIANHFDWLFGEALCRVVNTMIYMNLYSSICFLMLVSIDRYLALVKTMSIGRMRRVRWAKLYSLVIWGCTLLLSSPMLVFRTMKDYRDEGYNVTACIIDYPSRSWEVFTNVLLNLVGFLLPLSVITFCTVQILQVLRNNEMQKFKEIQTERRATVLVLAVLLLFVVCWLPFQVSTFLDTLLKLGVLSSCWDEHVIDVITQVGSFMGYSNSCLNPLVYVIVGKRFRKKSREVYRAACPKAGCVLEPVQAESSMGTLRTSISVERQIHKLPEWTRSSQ
# BK1 receptor [6] = molecular target: T3, BK1 receptor; experiment: blood pressure response to BK1 agonist in LPS-pretreated rabbits; format: in vivo, rabbit; details: for OBSERVED ANTAGONIST ACTIVITY BK1: rabbits given LPS (10 μg) 20 hours before
# NK1 receptor = molecular target: T5, NK1 receptor (Cavia porcellus, UniProt P30547); experiment: guinea pig ileum assay of NK1 receptor activity against substance P; format: cell-based; details: Table O
# T5 construct: a standard guinea pig ileum assay of NK1 receptor activity; from tissue; host or cells: guinea pig ileum
# Text: In order to illustrate the potential of blocking two different receptor populations with a single compound a consensus NK1 receptor antagonist (DArg-DPro-Lys-Pro-Gln-Asn-DPhe-Phe-DTrp-Leu-Nle) was synthesized. […] Once the activity of this reference ligand was established, a series of lysine containing monomers formed by the systematic substitution of a lysine residue sequentially through the reference peptide was synthesized.
# [7] = FIG. 8c, rabbits after endotoxin pretreatment
# T5 sequence (P30547 whole entry): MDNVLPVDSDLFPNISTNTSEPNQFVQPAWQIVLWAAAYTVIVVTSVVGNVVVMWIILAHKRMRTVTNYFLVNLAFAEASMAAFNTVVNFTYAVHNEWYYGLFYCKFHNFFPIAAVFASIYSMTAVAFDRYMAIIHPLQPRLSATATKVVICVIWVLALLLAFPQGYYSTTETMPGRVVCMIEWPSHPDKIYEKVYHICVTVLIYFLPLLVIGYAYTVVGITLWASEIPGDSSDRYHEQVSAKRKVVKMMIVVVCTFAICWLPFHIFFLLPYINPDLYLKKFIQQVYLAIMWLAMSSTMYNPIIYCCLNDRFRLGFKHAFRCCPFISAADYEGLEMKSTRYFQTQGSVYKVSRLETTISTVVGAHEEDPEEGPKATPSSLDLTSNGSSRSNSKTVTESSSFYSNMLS
Structure (SMILES),Kb (BK2 receptor [2]) [nM],OBSERVED ANTAGONIST ACTIVITY BK2 (BK2 receptor [5]; 1 μg kg^-1 min^-1),OBSERVED ANTAGONIST ACTIVITY BK2 (BK2 receptor [5]; 3 μg kg^-1 min^-1),OBSERVED ANTAGONIST ACTIVITY BK2 (BK2 receptor [5]; 10 μg kg^-1 min^-1),OBSERVED ANTAGONIST ACTIVITY BK1 (BK1 receptor [6]; 1 μg kg^-1 min^-1),OBSERVED ANTAGONIST ACTIVITY BK1 (BK1 receptor [6]; 3 μg kg^-1 min^-1),OBSERVED ANTAGONIST ACTIVITY BK1 (BK1 receptor [6]; 10 μg kg^-1 min^-1),IC50 (BK1 receptor [4]; Table L) [nM],further results
CC(C)C[C@H](NC(=O)[C@@H](Cc1ccccc1)NC(=O)[C@H](CO)NC(=O)[C@H](Cc1ccccc1)NC(=O)CNC(=O)[C@@H]1C[C@@H](O)CN1C(=O)[C@@H]1CCCN1C(=O)[C@H](CS)NC(=O)[C@H](N)CCCNC(=N)N)C(=O)N[C@@H](CCCNC(=N)N)C(=O)O [CP-0141] (HELM PEPTIDE1{[dR].C.P.[Hyp].G.F.S.[dF].L.R}$$$$V2.0),> 1000,,,,,,,,"Kb (BK2 receptor [1]): 794 nM; % REC MONOMER (BK2 receptor [3]; Table C, rat uterus): 100%"
CC(C)C[C@H](NC(=O)[C@@H]1CCCN1C(=O)[C@H](CO)NC(=O)[C@H](Cc1ccccc1)NC(=O)CNC(=O)[C@@H]1C[C@@H](O)CN1C(=O)[C@@H]1CCCN1C(=O)[C@H](CS)NC(=O)[C@H](N)CCCNC(=N)N)C(=O)O [CP-0362] (HELM PEPTIDE1{[dR].C.P.[Hyp].G.F.S.P.L}$$$$V2.0; N-terminus and C-terminus assumed),,,,,,,,,IC50 (BK1 receptor [4]; Table K): 1000 nM; BK2 (RAT UTERUS) pA2 (BK2 receptor [3]; Table K): Inactive
"CC(C)C[C@H](NC(=O)[C@@H]1CCCN1C(=O)[C@H](CO)NC(=O)[C@H](Cc1ccccc1)NC(=O)CNC(=O)[C@@H]1C[C@@H](O)CN1C(=O)[C@@H]1CCCN1C(=O)[C@H](CSC1CC(=O)N(CCCCCCN2C(=O)CC(SC[C@H](NC(=O)[C@H](Cc3ccccc3)NC(=O)CNC(=O)[C@@H]3C[C@@H](O)CN3C(=O)[C@@H]3CCCN3C(=O)[C@H](CCCNC(=N)N)NC(=O)[C@H](N)CCCNC(=N)N)C(=O)N[C@H](Cc3ccccc3)C(=O)N[C@@H](CC(C)C)C(=O)N[C@@H](CCCNC(=N)N)C(=O)O)C2=O)C1=O)NC(=O)[C@H](N)CCCNC(=N)N)C(=O)O (stereo partly drawn) [CP-0364] (HELM PEPTIDE1{[dR].R.P.[Hyp].G.F.C.[dF].L.R}|PEPTIDE2{[dR].C.P.[Hyp].G.F.S.P.L}|CHEM1{[O=C1CC([*:1])C(=O)N1CCCCCCN1C(=O)CC([*:2])C1=O]}$PEPTIDE1,CHEM1,7:R3-1:R1|PEPTIDE2,CHEM1,2:R3-1:R2$$$V2.0; N-terminus and C-terminus assumed)",5.01,+,+,+,+,+,+,31.6,block of BK2-mediated hypotensive response (BK2 receptor [5]; [7]): capable of blocking the response profile to both agonists simultaneously; block of BK1-mediated hypotensive response (BK1 receptor [6]; [7]): capable of blocking the response profile to both agonists simultaneously
N=C(N)NCCC[C@@H](N)C(=O)N[C@@H](CCCNC(=N)N)C(=O)N1CCC[C@H]1C(=O)N1C[C@H](O)C[C@H]1C(=O)NCC(=O)N[C@@H](Cc1ccccc1)C(=O)N[C@@H](CSC1CC(=O)N(CCCCCCN2C(=O)CC(SC[C@H](NC(=O)[C@H](N)CCCNC(=N)N)C(=O)N3CCC[C@H]3C(=O)N3C[C@H](O)C[C@H]3C(=O)NCC(=O)N[C@@H](Cc3ccccc3)C(=O)N[C@@H](CO)C(=O)N3Cc4ccccc4C[C@@H]3C(=O)N3[C@H](C(=O)O)C[C@@H]4CCCC[C@@H]43)C2=O)C1=O)C(=O)N1Cc2ccccc2C[C@@H]1C(=O)N1[C@H](C(=O)N[C@@H](CCCNC(=N)N)C(=O)O)C[C@@H]2CCCC[C@@H]21 (stereo partly drawn) [CP-0365] (I: H-[dR]RP[Hyp]GFC[dTic][Oic]R-OH / II: H-[dR]CP[Hyp]GFS[dTic][Oic]-OH; linker I:7-II:2 via BMH; N-terminus and C-terminus assumed),3.98,-,+,+,-,+,+,39.8,
"CCCC[C@H](NC(=O)[C@H](CC(C)C)NC(=O)[C@H](CCCCNC(=O)CCCCCN1C(=O)CC(SC[C@H](NC(=O)[C@H](Cc2ccccc2)NC(=O)CNC(=O)[C@@H]2C[C@@H](O)CN2C(=O)[C@@H]2CCCN2C(=O)[C@H](CCCNC(=N)N)NC(=O)[C@H](N)CCCNC(=N)N)C(=O)N[C@H](Cc2ccccc2)C(=O)N[C@@H](CC(C)C)C(=O)N[C@@H](CCCNC(=N)N)C(=O)O)C1=O)NC(=O)[C@H](Cc1ccccc1)NC(=O)[C@@H](Cc1ccccc1)NC(=O)[C@H](CC(N)=O)NC(=O)[C@H](CCC(N)=O)NC(=O)[C@@H]1CCCN1C(=O)[C@H](CCCCN)NC(=O)[C@H]1CCCN1C(=O)[C@H](N)CCCNC(=N)N)C(N)=O (stereo partly drawn) [CP-0398] (HELM PEPTIDE1{[dR].[dP].K.P.Q.N.[dF].F.K.L.[Nle].[am]}|PEPTIDE2{[dR].R.P.[Hyp].G.F.C.[dF].L.R}|CHEM1{[O=C1CC([*:2])C(=O)N1CCCCCC(=O)[*:1]]}$PEPTIDE1,CHEM1,9:R3-1:R1|PEPTIDE2,CHEM1,7:R3-1:R2$$$V2.0)",398,,,,,,,,NK1 : GPI pA2 (± s.e.m.) (NK1 receptor): Inactive
"CCCC[C@H](NC(=O)[C@H](CCCCNC(=O)CCCCCN1C(=O)CC(SC[C@H](NC(=O)[C@H](Cc2ccccc2)NC(=O)CNC(=O)[C@@H]2C[C@@H](O)CN2C(=O)[C@@H]2CCCN2C(=O)[C@H](CCCNC(=N)N)NC(=O)[C@H](N)CCCNC(=N)N)C(=O)N[C@H](Cc2ccccc2)C(=O)N[C@@H](CC(C)C)C(=O)N[C@@H](CCCNC(=N)N)C(=O)O)C1=O)NC(=O)[C@@H](Cc1c[nH]c2ccccc12)NC(=O)[C@H](Cc1ccccc1)NC(=O)[C@@H](Cc1ccccc1)NC(=O)[C@H](CC(N)=O)NC(=O)[C@H](CCC(N)=O)NC(=O)[C@@H]1CCCN1C(=O)[C@H](CCCCN)NC(=O)[C@H]1CCCN1C(=O)[C@H](N)CCCNC(=N)N)C(N)=O (stereo partly drawn) [CP-0399] (HELM PEPTIDE1{[dR].[dP].K.P.Q.N.[dF].F.[dW].K.[Nle].[am]}|PEPTIDE2{[dR].R.P.[Hyp].G.F.C.[dF].L.R}|CHEM1{[O=C1CC([*:2])C(=O)N1CCCCCC(=O)[*:1]]}$PEPTIDE1,CHEM1,10:R3-1:R1|PEPTIDE2,CHEM1,7:R3-1:R2$$$V2.0)",39.8,,,,,,,,Kb (NK1 receptor; read-out: NK1 : GPI pA2 (± s.e.m.) (converted)): 12600 nM
